Laboratory results taken from patent US11596623B2, “Methods for treating virus infection or proliferation” (HOWARD UNIVERSITY, priority 2018, dated 2023).

What was measured:
HSV-1 = assay: Immunofluorescence and confocal microscopy of ICP0; assay type: cell-based; conditions: 10 μM, HSV-1 MOI 1.0, 30 h
Method: The HEp-2 cells were infected with HSV-1 at an MOI of 1.0 for 30 h along with the indicated compounds and control. The no-virus control (A), vehicle DMSO treated (B) and SD29-14 10 μM treated (C) cells were fixed with 4% paraformaldehyde and stained with anti-ICP0-FITC (green) and DAPI for DNA (blue) in the nucleus. The slides were observed under a Nikon confocal microscope (60× magnification lens) and pictures were taken to show infected cells (green) and total cells (DAPI). All scale bars correspond to 20 μm. The imaging experiments were performed three independent times, and the results shown represent one of the three experiments. (D) Quantification of fluorescent cells by Image based cell sorting in a Cellometer (Nexcelom Vision). […] The cells were prepared by immunostaining with ICP0 antibody after 24-h incubation with the indicated compounds. The total cell counts were 1.01×10^6/ml, 4.69×10^6/ml, and 5.36×10^6/ml for DMSO, SD29-14 (10 μM), and SD29-14 (100 μM) respectively. The numbers show the mean±SE of three replicates.
Hep-2 cells were grown to about 80% confluency in 12 well plate and the cells were co-infected with HSV-1 at an MOI of 1.0 for 30 h along with the indicated inhibitor compounds and control. The cells were fixed at room temperature with 4% paraformaldehyde-PBS for 15 minutes and then permeabilized at room temperature by 0.5% Triton X-100-PBS (pH 7.4) for 10 min. […]

HSV-1 ICP0 = assay: Real-time RT-PCR of HSV-1 ICP0 transcript in HEp-2 cells; assay type: cell-based; conditions: 12 and 24 hpi, versus DMSO
From the text: The total transcript levels were quantified using actin expression as an internal control. The cDNA obtained immediately after the virus and drug transfection(s) was set as a baseline value. The normalized expression values were transformed to the log 10 value. The data plot represents mean t standard error calculated from three replicates.
Following instructions of the manufacturers, total RNA was isolated using Tri Reagent® (Ambion, Inc., Austin, Tex.). To quantitatively examine the mRNA level of HSV-1 ICP0 from the infected cells, real-time RT-PCR was undertaken using the QuantiTect SYBR Green RT-PCR kit (QIAGEN, Valencia, Calif.). […] Fluorescence (captured at 80° C.) was determined to be absent from the signal generated by primer dimers. Data were collected and recorded by the BIORAD CFX Manager software. The relative quantity of the ICP0 transcripts at the indicated time points was normalized to the relative quantity of the reference gene actin at the same time points and then the log10 copy number of the normalized RNA transcripts were calculated and presented on a bar chart. A melting temperature curve analysis was obtained by measuring (after the amplification cycles) the fluorescence during a period of warming from 60° C. to 95° C. […]

SMILES	ICP0 protein expression (immunofluorescence) (HSV-1)	ICP0 mRNA level (HSV-1 ICP0)
Nn1c(S)nnc1-c1cc(Cl)cc(Cl)c1 [SD29-14]	effectively eliminated any expression of ICP0 protein	
Nn1c(S)nnc1-c1ccc(F)cc1 [SD-29]		essentially showed the same level of ICP0 mRNA
